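Briefly, cells in 96-well plates were exposed to five compound concentrations for 48 h, and endpoints were estimated by linear interpolation. GI50 marks 50% less growth.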 Calls of active or inactive are those of the source. Rule as the data show it: active = GI50 up to about 1.1 µM and inactive = higher.

Some test systems named below: COLO 205; EKVX; HCT-15; HL-60; HOP-92; IGROV-1; K562; MDA-MB-435; NCI-H23; NCI/ADR-RES; RPMI-8226; RXF 393; SF-268; SK-MEL-2; SK-MEL-5; T47D; TK-10; UACC-257; UACC-62; BT-549.
Holding throughout (assay): growth of human tumour cells (NCI), 48 h

Turning to `O=[N+]([O-])c1ccc2c(c1)=[N+]([O-])C1(CCCCC1)[N+]=2[O-]`, the GI50 in the experiment with COLO 205 is 12.1 µM (inactive); in the experiment with EKVX, 15.5 µM (inactive); with HCT-15, 18.2 µM; in the experiment with HL-60, 3.27 µM (inactive); in the experiment with HOP-92, 15.3 µM (inactive); with IGROV-1, 20.4 µM (inactive). The GI50 is 15.8 µM (inactive) with K562; 13.7 µM (inactive) in the experiment with MDA-MB-435; 22.9 µM (inactive) with NCI-H23; 26.2 µM (inactive) in the experiment on NCI/ADR-RES; 10.2 µM (inactive) in the experiment with RPMI-8226; 18.5 µM (inactive) in the experiment on RXF 393. Moreover, the GI50 is 26.9 µM (inactive) in the experiment with SF-268; 22.1 µM (inactive) in the experiment on SK-MEL-2; 15 µM (inactive) in the experiment with SK-MEL-5; 25.5 µM (inactive) in the experiment on T47D; 13.3 µM (inactive) in the experiment with TK-10; 15.1 µM (inactive) in the experiment on UACC-257. Besides, in the experiment on UACC-62, the GI50 is 10.4 µM (inactive).

As to `Cc1cc(Br)cc(C)c1NC(=O)C(=O)C1C(=O)C(CC2C(=O)c3ccccc3C2=O)C(=O)CC1(C)C` (configuration not stated), the GI50 in the experiment on BT-549 is > 100 µM (inactive); with COLO 205 it was > 100 µM (inactive); in the experiment on EKVX, 50.8 µM (inactive); with HCT-15, 63.5 µM; in the experiment on HL-60, 28.5 µM (inactive); in the experiment on HOP-92 it was 55.3 µM (inactive). Further, the GI50 is 29.9 µM (inactive) in the experiment with IGROV-1; > 100 µM (inactive) with MDA-MB-435; 84.1 µM (inactive) in the experiment on NCI-H23; 86.5 µM (inactive) in the experiment on NCI/ADR-RES; 3.66 µM (inactive) with RXF 393; > 100 µM (inactive) in the experiment with SF-268. Besides, the GI50 with SK-MEL-2 is > 100 µM (inactive); in the experiment with SK-MEL-5, > 100 µM (inactive); in the experiment with TK-10, > 100 µM (inactive); with UACC-257, > 100 µM (inactive); with UACC-62, 90.2 µM (inactive).

Turning to `[N-]=[N+]=NI1OC(C(F)(F)F)(C(F)(F)F)c2ccccc21`, the GI50 with COLO 205 was 13.8 µM (inactive); in the experiment with EKVX, 16.9 µM (inactive); in the experiment with HCT-15 it was 8.18 µM; in the experiment with HL-60 it was 15.4 µM (inactive); in the experiment with HOP-92 it was 13.4 µM (inactive); with IGROV-1, 16.3 µM (inactive). In addition, the GI50 with K562 is 11.5 µM (inactive); in the experiment with MDA-MB-435 it was 17.5 µM (inactive); with NCI-H23, 17.8 µM (inactive); with NCI/ADR-RES, 18.6 µM (inactive); in the experiment with RPMI-8226, 12.1 µM (inactive); in the experiment on RXF 393, 14 µM (inactive). In addition, the GI50 with SF-268 was 13.6 µM (inactive); in the experiment with SK-MEL-2 it was 16 µM (inactive); in the experiment with SK-MEL-5 it was 1.24 µM (inactive); in the experiment on T47D, 12.1 µM (inactive); with TK-10 it was 16.5 µM (inactive); with UACC-257, 24.5 µM (inactive). In the experiment with UACC-62, the GI50 was 18 µM (inactive).

In the case of `CC12CCCCC1=[N+]([O-])C(C)(C)N2O` (configuration not stated), the GI50 in the experiment on COLO 205 is > 100 µM (inactive); in the experiment with EKVX, > 100 µM (inactive); in the experiment on HCT-15, above 100 µM; in the experiment on HOP-92, > 100 µM (inactive); in the experiment with IGROV-1 it was > 100 µM (inactive); with K562, > 10 µM (inactive). The GI50 in the experiment with MDA-MB-435, in the experiment on NCI-H23, with NCI/ADR-RES, in the experiment on RPMI-8226, in the experiment on RXF 393 and in the experiment on SF-268 was > 100 µM (inactive) each time. In addition, the GI50 in the experiment with SK-MEL-2, in the experiment on SK-MEL-5, in the experiment with T47D, in the experiment with TK-10, with UACC-257 and in the experiment with UACC-62 was > 100 µM (inactive) in each case.

As to `CC1CCC2c3c([nH]c4ccccc34)C3C(=O)N(C4CCCCC4)C(=O)C3C2C1` (configuration not stated), the GI50 with BT-549 was 14.1 µM (inactive); with COLO 205, > 100 µM (inactive); in the experiment on EKVX it was 14.8 µM (inactive); with HCT-15 it was 49.8 µM; in the experiment with HL-60, > 100 µM (inactive); in the experiment with HOP-92, 21 µM (inactive). Besides, the GI50 was 17.2 µM (inactive) in the experiment on IGROV-1; 19 µM (inactive) with K562; 55.3 µM (inactive) in the experiment on MDA-MB-435; 23.7 µM (inactive) with NCI-H23; 36.5 µM (inactive) in the experiment with NCI/ADR-RES; 38.2 µM (inactive) with RPMI-8226. Moreover, the GI50 is 13.7 µM (inactive) in the experiment on RXF 393; 13.6 µM (inactive) with SF-268; 17.4 µM (inactive) in the experiment with SK-MEL-2; 17.9 µM (inactive) with SK-MEL-5; 13.4 µM (inactive) in the experiment on TK-10; 46.3 µM (inactive) in the experiment on UACC-257. The GI50 with UACC-62 is 12.2 µM (inactive).

Regarding `COc1ccc(N2C(=O)CC(=O)N(C(=O)COc3ccc(OCC(=O)N4C(=O)CC(=O)N(c5ccc(OC)cc5)C4=S)cc3)C2=S)cc1`, the GI50 in the experiment with BT-549 was 50.1 µM (inactive); with COLO 205 it was 18.9 µM (inactive); in the experiment on EKVX, 92.9 µM (inactive); in the experiment with HCT-15, 48.6 µM; with HOP-92, 40.9 µM (inactive); in the experiment with IGROV-1, 47.9 µM (inactive). Also, the GI50 is 41.4 µM (inactive) in the experiment on K562; 36.9 µM (inactive) in the experiment with MDA-MB-435; 38.1 µM (inactive) in the experiment on NCI-H23; 66.4 µM (inactive) with NCI/ADR-RES; 19.6 µM (inactive) with RPMI-8226; 23.7 µM (inactive) with RXF 393. In addition, the GI50 is 35.4 µM (inactive) in the experiment on SF-268; 23.9 µM (inactive) in the experiment on SK-MEL-2; 36.8 µM (inactive) in the experiment on SK-MEL-5; 44.3 µM (inactive) with TK-10; 43.9 µM (inactive) in the experiment on UACC-257; 29.2 µM (inactive) in the experiment with UACC-62.

Consider `CCC(=O)COc1ccc(NC(NC(=O)C(C(F)(F)F)C(F)(F)F)(C(F)(F)F)C(F)(F)F)cc1`, for which the GI50 is 21.2 µM (inactive) in the experiment with COLO 205; 49.2 µM (inactive) in the experiment with EKVX; 27.5 µM with HCT-15; 22.2 µM (inactive) in the experiment on HL-60; 39.1 µM (inactive) with HOP-92; 19.4 µM (inactive) with IGROV-1. The GI50 in the experiment with MDA-MB-435 is 42.7 µM (inactive); with NCI-H23, 36.5 µM (inactive); in the experiment with NCI/ADR-RES it was 18.9 µM (inactive); in the experiment on RPMI-8226, 16.9 µM (inactive); with RXF 393 it was 18.6 µM (inactive); in the experiment on SF-268, 27.9 µM (inactive). Besides, the GI50 in the experiment with SK-MEL-2 was 30.3 µM (inactive); in the experiment on SK-MEL-5 it was 42.3 µM (inactive); in the experiment on T47D, 20.6 µM (inactive); in the experiment on TK-10 it was 37 µM (inactive); in the experiment with UACC-257, 53.7 µM (inactive).

`O=C(O)c1cc2ccccc2c(/N=N/c2ccc(S(=O)(=O)Nc3ncccn3)cc2)c1O`: the GI50 is > 100 µM (inactive) in the experiment on BT-549; > 100 µM (inactive) in the experiment with COLO 205; > 100 µM (inactive) in the experiment on EKVX; above 100 µM in the experiment on HCT-15; > 100 µM (inactive) in the experiment on HL-60; > 100 µM (inactive) with HOP-92. The GI50 in the experiment with IGROV-1, in the experiment on K562, with MDA-MB-435, in the experiment on NCI/ADR-RES, in the experiment with RPMI-8226 and with RXF 393 was > 100 µM (inactive) in each case. Besides, the GI50 in the experiment on SF-268, in the experiment with SK-MEL-2, in the experiment with SK-MEL-5, in the experiment with TK-10, with UACC-257 and with UACC-62 was > 100 µM (inactive) each time.

As to `COc1cc(C2c3cc4c(cc3OC(C)(O)C2C)OCO4)cc(OC)c1OC` (configuration not stated), the GI50 is 5.42 µM (inactive) with BT-549; 0.49 µM (active) in the experiment on COLO 205; 28.6 µM (inactive) in the experiment on EKVX; 0.4 µM with HCT-15; 0.182 µM (active) in the experiment on HL-60; 0.625 µM (active) with IGROV-1. Also, the GI50 in the experiment with K562 is 0.274 µM (active); in the experiment on MDA-MB-435 it was 0.118 µM (active); with NCI-H23, 0.745 µM (active); in the experiment with NCI/ADR-RES it was 0.316 µM (active); with RPMI-8226, 0.237 µM (active); with RXF 393 it was 0.211 µM (active). The figures for the GI50 with SF-268, with SK-MEL-5 and in the experiment on UACC-257 were 2.69 µM (inactive), 0.154 µM (active) and 65.2 µM (inactive), respectively.

Regarding `CCOP(C)(=O)C(Nc1ccc(F)cc1)c1ccc(F)cc1` (configuration not stated), the GI50 with COLO 205 was > 100 µM (inactive); in the experiment on EKVX, > 100 µM (inactive); in the experiment with HCT-15, above 100 µM; in the experiment with HL-60 it was > 100 µM (inactive); in the experiment on HOP-92, > 100 µM (inactive); in the experiment with IGROV-1, > 100 µM (inactive). Also, the GI50 in the experiment on K562, in the experiment with MDA-MB-435, with NCI-H23, in the experiment with NCI/ADR-RES, in the experiment with RPMI-8226 and in the experiment on RXF 393 was > 100 µM (inactive) each time. For the same compound, the GI50 with SF-268, with SK-MEL-2, in the experiment with SK-MEL-5, in the experiment with T47D, in the experiment on TK-10 and in the experiment with UACC-257 was > 100 µM (inactive) each time. For the same compound, the GI50 with UACC-62 was > 100 µM (inactive).

For `C/C(=C\c1ccccn1)c1ccccn1`, the GI50 was > 100 µM (inactive) in the experiment with BT-549; > 100 µM (inactive) with COLO 205; > 100 µM (inactive) in the experiment on EKVX; above 100 µM in the experiment on HCT-15; > 100 µM (inactive) in the experiment with HOP-92; > 100 µM (inactive) in the experiment with IGROV-1. For the same compound, the GI50 in the experiment on K562, in the experiment on MDA-MB-435, in the experiment on NCI-H23, in the experiment with NCI/ADR-RES, with RPMI-8226 and in the experiment with RXF 393 was > 100 µM (inactive) throughout. The GI50 in the experiment on SF-268, in the experiment with SK-MEL-2, with SK-MEL-5, in the experiment on TK-10, with UACC-257 and in the experiment with UACC-62 was > 100 µM (inactive) each time.

These data come from ChEMBL document CHEMBL1201862, “PubChem BioAssay data set” (2004).
